Laboratory results: US20040044067A1, “Toralactone and its derivation and the use of decreasing blood-fat and losing weight” (priority 2000, published 2004)

System: hyperlipemia guinea pigs
Assay: Effect on serum cholesterol and triglyceride in hyperlipemia guinea pigs (high-cholesterol feed, 30 days)
Format: in vivo, guinea pig
Settings: for Serum TC (total cholesterol) / Serum TG (triglyceride): guinea pigs on high-cholesterol feed (basic feed+0.5% cholesterol) plus 10 mg/(kg·d) compound for 30 days, serum taken 24 h after last feeding, n=10
Procedure: The test was performed as described in Fuhua, Wang, Chinese Journal of Surgery, 1991; 8 (1): 17. 60 healthy guinea pigs of 200-500 g were randomly divided into 6 groups based on body weight and sex. Each group contained 10 animals, including both male and female. The guinea pigs of Group 1 were fed with high-cholesterol feed (basic feed+0.5% cholesterol) at an amount of 20 g per 100 g body weight per day. Groups 2, 3, 4, 5 were test groups, the guinea pigs of which were fed with high-cholesterol feed plus 10 mg/(kg·d) of Compound (1), (2), (3) or (4) for 30 days. The guinea pigs of Group 6 were fed with basic feed only. The feeding for each group continued for 30 days, and 24 hours after the last feeding, the guinea pigs were anaesthetized i.p. with 1 g/kg Urethane. Blood was taken from heart, and serum was separated. The level of serum total cholesterol (TC) and triglyceride (TG) were determined.
In the above procedure, cholesterol was determinated by enzymatic analysis, using enzymatic agent assay kit from BGH Company (Taiwan). All the operations were carried out according to the manufacturer's instruction, and the determination was accomplished in ENCOREII automatic biochemistry analyser.

| Substance | Serum TC (total cholesterol) [mmol/L] | Serum TG (triglyceride) [mmol/L] | Effect on the level of serum TC and TG (in words) (10 mg/(kg·d)×30d, hyperlipemia guinea pigs) |
| --- | --- | --- | --- |
| neotoralactone-8-O-β-D-glucoside [Compound (3)] | 3.81 ± 0.9 | 1.18 ± 0.2 |  |
| neotoralactone-6-O-β-D-glucoside [Compound (2)] |  |  | most prominent |
| neotoralactone [Compound (1)] | 4.21 ± 1.9 | 1.21 ± 0.3 |  |
| neotoralactone-6-O-β-D-galactoside [Compound (4)] | 3.71 ± 1.1 | 1.22 ± 0.2 |  |
